From patent US20060286561A1, “PROPARGYLETHOXYAMINO NUCLEOTIDES” (Applera Corporation; Applied Biosystems Group, priority 1996, published 2006)

Columns and labels:
Type in all cases: biochemical
[1] = target: T1, AmpliTaq DNA Polymerase, FS (Thermus aquaticus, UniProt P19821, F667Y/G46D); test: Terminator Titration Assay (dye-terminator cycle sequencing reaction); details: for Relative Molar Excess Terminator Required: to form a full sequencing ladder
T1 construct: purchased PE Applied Biosystems p/n 402117
From the text: The Terminator Titration Assay was used to determine the minimum amount of dye terminator required to create a full sequencing ladder, i.e., a sequencing ladder including all fragments terminating in a particular base having a length of between about 20 to about 600 nucleotides. The key components of the assay were (i) a primer labeled with a first dye, and (i) a terminator labeled with a second dye spectrally resolvable from the first dye. In the assay, when an insufficient concentration of dye terminator was added to the sequencing reaction, no dideoxy-terminated fragments were formed, and all that was seen on the sequencing gel were products formed by “false stops” that were labeled with the first dye only. As used herein the term “false stops” refer to primer extension products not terminating in a dideoxy terminator, such products probably being formed when the polymerase enzyme spontaneously disengages with the template strand. When too much terminator was used, only short termination products were formed, i.e., less than about 50 nucleotides in length, such products including both the first and second dyes. When the proper amount of terminator was used, a full sequencing ladder was produced, each fragment of the ladder being labeled with both the first and second dyes.
The dye-terminator reactions were performed using AmpliTaq DNA Polymerase, FS following protocols provided in the ABI PRISM™ Dye Terminator Cycle Sequencing Core Kit Manual (PE Applied Biosystems p/n 402116). (The FS enzyme is a recombinant Thermus aquaticus DNA polymerase having two point mutations--G46D and F667Y). All reagents except the dNTP mix, dye labeled primers, and dye-labeled terminators were from an ABI PRISM™ Dye Terminator Core Kit (PE Applied Biosystems p/n 402117). The dNTP mix consisted of 2 mM each of dATP, dCTP, dGTP and dTTP. A premix of reaction components was prepared as shown in the following table wherein all quantities are given on a per reaction basis:
Reactions were assembled in 0.5 ml tubes adapted for the Perkin-Elmer 480 DNA Thermal Cycler (PE Applied Biosystems p/n N801-100). Reaction volumes were 20 μL, including 15 μL, of the above reaction premix, a variable amount of dye labeled terminator, and a sufficient volume of water to bring the total reaction volume up to 20 μL. From 1 to 1000 pmol of the dye terminator was added to each reaction. 30 μL of mineral oil was added to the top of each reaction to prevent evaporation. Reactions were thermocycled as follows: 96° C. for 30 sec, 50° C. for 15 sec, and 60° C. for 4 min, for 25 cycles; followed by a 4° C. hold cycle.
All reactions were purified by spin-column purification on Centri-Sep spin columns according to manufacturer's instructions (Princeton Separations p/n CS-901). Gel material in the column was hydrated with 0.8 mL deionized water for at least 30 minutes at room temperature. After the column was hydrated and it was determined that no bubbles were trapped in the gel material, the upper and lower end caps of the column were removed, and the column was allowed to drain by gravity. The column was then inserted into the wash tubes provided in the kit and centrifuged in a variable speed microcentrifuge at 1300×g for 2 minutes, removed from the wash tube, and inserted into a sample collection tube. The reaction mixture was carefully removed from under the oil and loaded onto the gel material. Columns were centrifuged in a variable speed microcentrifuge at 1300×g for 2 minutes. Eluted samples were then dried in a vacuum centrifuge.
Prior to loading onto a sequencing gel, the dried samples were resuspended in 25 μL of Template Suppression Reagent (PE Applied Biosystems p/n 401674), vortexed, heated to 95° C. for 2 minutes, cooled on ice, vortexed again, and centrifuged (13,000×g). 10 μL of the resuspended sample was aliquoted into sample vials (PE Applied Biosystems p/n 401957) adapted for the PE ABI PRISM™ 310 Genetic Analyzer (PE Applied Biosystems p/n 310-00-100/120). […]

[2] = target: AmpliTaq FS Polymerase (mutant form of Taq DNA polymerase) (Thermus aquaticus, UniProt P19821, F667Y/G46D); test: Single-Nucleotide Incorporation Assay for relative enzyme selectivity; details: for ddCTP/(Dye)-ddCTP (ratio of incorporation rates, preference for unlabeled ddCTP): ddCTP and dye-ddCTP each 200 μM, 8 nM enzyme, 60° C., corrected for energy transfer
From the text: In the assay, an unlabeled terminator and its cognate dye-labeled terminator are present in equal concentrations and allowed to compete for the same polymerase-substrate binding site under enzyme limited (steady-state) conditions.
With reference to FIG. 3, the components of the assay include a 36 nucleotide template (5); a 25 nucleotide primer (10) having a sequence complementary to the template and a first fluorescent label at the 5′-end (15); an unlabeled terminator (20); a dye-labeled terminator (25) having a second fluorescent label attached thereto (30) which is spectrally resolvable from the first fluorescent label; and a polymerase enzyme. In the present example, the unlabeled terminator was 2′,3′-ddCTP and the dye-labeled terminator was 6-(FAM)-ddCTP where different linker arms were used to attach the dye to the nucleotide. The template DNA contained a single G (35) at the template position following the end of the primer.
Products (40) and (45) were detected by resolving them electrophoretically and detecting the resulting bands using an ABI PRISM™ 373 DNA Sequencer (PE Applied Biosystems). A typical banding pattern consisted of a 25-mer band corresponding to the labeled primer (10), a 26-mer band corresponding to the product (40) and an “apparent 27-mer” which corresponded to product (45). The apparent extra base seen in product (45) is a result of the effect of the dye-labeled terminator on the electrophoretic mobility of the fragment. By taking samples from a reaction mixture and measuring the relative amounts of DNA in the 25-mer, 26-mer, and apparent 27-mer bands as a function of time, it was possible to measure the relative incorporation rates of the unlabeled and dye-labeled terminators in the reaction. […] In this manner, it was possible to measure the effect of linker structure on dye-terminator incorporation.
For the case of product (45), it is necessary to correct the fluorescence signal for fluorescence energy transfer which takes place between the first fluorescent label (15) located at the 5′-end of product (45), TAMRA in this example, and the second fluorescent label (30) located on the terminator positioned at the 3′-end of product (45), FAM in this example. Under the conditions used for detection, the presence of the 3′-FAM label serves to enhance the signal resulting from the TAMRA label. The energy-transfer correction is accomplished by synthesizing a doubly labeled internal standard molecule having the same structure as product (45), preparing a control sample containing equal moles of the 5′-TAMRA labeled primer (10) and the doubly labeled internal standard molecule, and running the control sample in a control lane on the same gel as assay products (40) and (45). Any difference in TAMRA fluorescence between the primer (10) and the doubly labeled internal standard is a quantitative measure of the extent of energy transfer between the dye moieties in the assay product (45). […] This measurement was used to correct the TAMRA fluorescence from the product (45) in each of the test sample lanes.
(The numbers in parenthesis next to certain components refer to elements in FIG. 3.)
The assay reactions were prepared as follows. Two 2×-concentrated “Half Reaction Mixtures” were prepared and held on ice. A first solution, the “2× Enz·DNA” mixture, comprised […] template/primer DNA and […] AmpliTaq FS in 80 mM TRIS buffer. A second solution, the “2× Mg·Nuc” mixture, comprised 80 mM TRIS buffer plus 4.8 mM MgCl2 and each of the nucleotides at 400 μM. A “Zero Time Control” sample was prepared by adding 1 μl of the 2× Enz-DNA mixture to 25 μl of “STOP Solution” (0.5 M EDTA, […]), and, after mixing, adding 1 μl of the 2× Mg·Nuc mixture. The Zero Time Control sample was held on ice until the remainder of the timed samples were also collected for further processing. […]

[3] = target: T1, AmpliTaq DNA Polymerase, FS; test: Terminator Titration Assay (dye-terminator cycle sequencing reaction); details: for mean peak height / relative error of peak height (standard deviation / mean): FIG. 2, at optimal terminator concentration; for relative error of peak height (standard deviation / mean): lower = more even peak heights; for optimal concentration of terminator: FIG. 2, sequencing pattern comparison
[4] = C-terminator linked to 6-FAM dye, unlabeled dideoxy terminator = 1
[5] = C-terminator, various combinations of dyes and linkers, unlabeled terminator = 1

T1 sequence (P19821 whole entry G46D/F667Y): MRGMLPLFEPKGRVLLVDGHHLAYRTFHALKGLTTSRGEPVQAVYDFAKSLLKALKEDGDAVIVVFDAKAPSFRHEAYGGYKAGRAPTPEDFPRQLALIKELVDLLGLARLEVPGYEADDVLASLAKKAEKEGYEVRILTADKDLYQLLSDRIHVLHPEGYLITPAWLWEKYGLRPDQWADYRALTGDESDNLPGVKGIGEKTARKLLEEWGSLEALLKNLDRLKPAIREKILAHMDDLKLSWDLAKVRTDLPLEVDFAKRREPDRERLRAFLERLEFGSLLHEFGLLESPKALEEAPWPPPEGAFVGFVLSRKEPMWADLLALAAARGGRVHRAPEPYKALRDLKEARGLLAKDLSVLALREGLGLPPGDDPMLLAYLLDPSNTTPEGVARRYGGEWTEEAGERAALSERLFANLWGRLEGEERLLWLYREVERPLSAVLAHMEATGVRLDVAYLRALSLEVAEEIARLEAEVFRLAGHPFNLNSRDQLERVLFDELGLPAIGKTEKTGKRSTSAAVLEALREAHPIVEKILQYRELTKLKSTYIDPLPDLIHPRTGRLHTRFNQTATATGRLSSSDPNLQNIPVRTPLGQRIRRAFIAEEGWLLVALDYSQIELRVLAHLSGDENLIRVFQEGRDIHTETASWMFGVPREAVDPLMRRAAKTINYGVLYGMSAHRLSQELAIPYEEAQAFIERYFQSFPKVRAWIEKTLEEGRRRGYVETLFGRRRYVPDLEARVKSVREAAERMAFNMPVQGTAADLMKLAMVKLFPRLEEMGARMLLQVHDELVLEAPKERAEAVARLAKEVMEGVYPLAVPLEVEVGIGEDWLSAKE
Chain of AmpliTaq FS Polymerase (mutant form of Taq DNA polymerase) (P19821 whole entry G46D/F667Y): as above

| SMILES | reduced molar excess as compared with terminators employing the propargylamido linker ([1]; C-terminator) | reduced molar excess as compared with terminators employing a propargyl-2-ethoxyamido linker ([1]; C-terminator linked to 6-FAM) | Relative Molar Excess Terminator Required [1, 4] | Relative Molar Excess Terminator Required [1, 5] | ddCTP/(Dye)-ddCTP (ratio of incorporation rates, preference for unlabeled ddCTP) [2] [×] | ddCTP/(Dye)-ddCTP (ratio of incorporation rates, preference for unlabeled ddCTP) ([2]; listed as FAM-ddCTP (propargyl-1-ethoxyamido linker)) [×] | mean peak height [3] | relative error of peak height (standard deviation / mean) [3] | optimal concentration of terminator [3] [pmol] | increase of bias against dye-ddCTP versus propargylamido linker ([2]; FAM-ddCTP, from 65× to 110×) | ddCTP/(Dye)-ddCTP (ratio of incorporation rates, preference for unlabeled ddCTP) ([2]; listed as FAM-ddCTP (propargyl-2-ethoxyamido linker)) [×] | ddCTP/(Dye)-ddCTP (ratio of incorporation rates, preference for unlabeled ddCTP) ([2]; listed as FAM-ddCTP (propargylamido linker)) [×] |
| --- | --- | --- | --- | --- | --- | --- | --- | --- | --- | --- | --- | --- |
| Nc1nc(=O)n(C2CCC(COP(=O)(O)OP(=O)(O)OP(=O)(O)O)O2)cc1C#CCOCCNC(=O)c1ccc2c(c1)C(=O)OC21c2ccc(O)cc2Oc2cc(O)ccc21 (stereo not shown) [(6-FAM)-propargyl-1-ethoxyamido-C] | six-fold | five-fold | 9 | 9 | 19 | 19 | 504 | 0.436 | 50 |  |  |  |
| Nc1nc(=O)n(C2CCC(COP(=O)(O)OP(=O)(O)OP(=O)(O)O)O2)cc1C#CCOCCOCCNC(=O)c1ccc2c(c1)C(=O)OC21c2ccc(O)cc2Oc2cc(O)ccc21 (stereo not shown) [(6-FAM)-propargyl-2-ethoxyamido-C] |  |  | 45 |  | 110 |  |  |  |  | about 2 fold | 110 |  |
| Nc1nc(=O)n(C2CCC(COP(=O)(O)OP(=O)(O)OP(=O)(O)O)O2)cc1C#CCNC(=O)c1ccc2c(c1)C(=O)OC21c2ccc(O)cc2Oc2cc(O)ccc21 (stereo not shown) [(6-FAM)-propargylamido-C, reference compound] |  |  | 55 | 55 | 65 |  | 1800 | 0.533 | 250 |  |  | 65 |
| Nc1ccn([C@H]2CC[C@@H](COP(=O)(O)OP(=O)(O)OP(=O)(O)O)O2)c(=O)n1 [Unlabeled terminator, 2′,3′-ddCTP, reference compound] |  |  | 1 | 1 |  |  |  |  |  |  |  |  |
